Test results published in publication PMC8513526, “An Advanced Automated Patch Clamp Protocol Design to Investigate Drug—Ion Channel Binding Dynamics” (Frontiers in Pharmacology, 2021).
Where two headings read alike, the source gives them in different places.

What was measured:
Type in all cases: cell-based
rNaV1.4 [1] = biological target: T1, rNaV1.4 (Rattus norvegicus, UniProt P15390); test: automated patch clamp (IonFlux Mercury ensemble recording; Port-a-Patch single-cell validation), […]
T1 construct: gene Scn4a; recombinant rNaV1.4 channel stably expressed in HEK 293 cells

rNaV1.4 [2] = biological target: T1, rNaV1.4; test: as above; remark: listed apart in the source
rNaV1.4 [3] = biological target: T1, rNaV1.4; test: automated patch clamp (IonFlux Mercury), […]
rNaV1.4 [4] = biological target: T1, rNaV1.4; test: automated patch clamp (IonFlux Mercury), […]; inhibition of pulse #[…] peak current at […]

T1 sequence (P15390 whole entry): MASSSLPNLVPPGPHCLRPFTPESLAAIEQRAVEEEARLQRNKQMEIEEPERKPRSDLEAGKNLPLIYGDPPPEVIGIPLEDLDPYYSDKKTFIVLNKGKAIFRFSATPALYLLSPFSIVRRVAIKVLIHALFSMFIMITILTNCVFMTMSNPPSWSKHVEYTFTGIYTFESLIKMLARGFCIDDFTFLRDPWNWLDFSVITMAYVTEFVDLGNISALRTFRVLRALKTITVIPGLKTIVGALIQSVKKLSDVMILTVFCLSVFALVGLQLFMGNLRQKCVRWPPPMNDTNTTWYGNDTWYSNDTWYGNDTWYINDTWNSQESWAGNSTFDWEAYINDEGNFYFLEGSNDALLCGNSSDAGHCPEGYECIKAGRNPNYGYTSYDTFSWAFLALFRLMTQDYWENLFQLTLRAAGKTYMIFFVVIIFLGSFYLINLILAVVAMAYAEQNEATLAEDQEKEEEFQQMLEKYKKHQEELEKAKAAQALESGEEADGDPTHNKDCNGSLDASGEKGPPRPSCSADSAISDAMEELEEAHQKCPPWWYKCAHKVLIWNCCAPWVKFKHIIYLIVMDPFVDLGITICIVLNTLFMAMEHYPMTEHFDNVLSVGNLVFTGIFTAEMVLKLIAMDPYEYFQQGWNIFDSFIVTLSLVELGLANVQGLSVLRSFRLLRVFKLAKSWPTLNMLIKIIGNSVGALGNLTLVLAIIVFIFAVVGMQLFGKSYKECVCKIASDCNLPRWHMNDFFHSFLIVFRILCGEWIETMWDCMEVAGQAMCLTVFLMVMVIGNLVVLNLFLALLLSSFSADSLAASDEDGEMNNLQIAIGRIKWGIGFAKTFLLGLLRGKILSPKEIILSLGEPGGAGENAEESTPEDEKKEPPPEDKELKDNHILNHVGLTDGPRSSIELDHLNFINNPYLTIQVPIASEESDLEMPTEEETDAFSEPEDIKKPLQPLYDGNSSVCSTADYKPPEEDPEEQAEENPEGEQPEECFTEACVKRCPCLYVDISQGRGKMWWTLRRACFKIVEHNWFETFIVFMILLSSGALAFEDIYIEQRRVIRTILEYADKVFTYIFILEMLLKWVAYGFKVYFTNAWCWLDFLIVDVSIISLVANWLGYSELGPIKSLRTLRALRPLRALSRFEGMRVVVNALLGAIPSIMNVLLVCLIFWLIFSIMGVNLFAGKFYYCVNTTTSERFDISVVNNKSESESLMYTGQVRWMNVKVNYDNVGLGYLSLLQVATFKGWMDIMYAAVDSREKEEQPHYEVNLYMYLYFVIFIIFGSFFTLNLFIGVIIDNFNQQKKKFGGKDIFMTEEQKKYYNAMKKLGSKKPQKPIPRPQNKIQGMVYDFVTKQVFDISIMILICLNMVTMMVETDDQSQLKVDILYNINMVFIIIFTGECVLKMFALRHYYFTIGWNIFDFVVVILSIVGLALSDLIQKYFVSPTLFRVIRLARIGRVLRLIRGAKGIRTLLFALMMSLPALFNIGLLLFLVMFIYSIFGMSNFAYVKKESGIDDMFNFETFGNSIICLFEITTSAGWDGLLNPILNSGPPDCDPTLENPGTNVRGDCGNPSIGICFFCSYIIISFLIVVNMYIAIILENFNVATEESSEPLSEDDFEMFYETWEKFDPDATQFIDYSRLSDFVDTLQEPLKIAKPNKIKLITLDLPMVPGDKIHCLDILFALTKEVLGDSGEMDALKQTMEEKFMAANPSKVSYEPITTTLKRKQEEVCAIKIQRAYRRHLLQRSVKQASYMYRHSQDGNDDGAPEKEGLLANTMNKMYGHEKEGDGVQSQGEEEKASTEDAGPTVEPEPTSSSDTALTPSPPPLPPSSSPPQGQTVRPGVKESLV

Compound: CCN(CC)CC(=O)Nc1c(C)cccc1C [lidocaine]
- automated patch clamp (IonFlux Mercury ensemble recording); Port-a-Patch single-c (rNaV1.4 [1]): lidocaine caused a slowing of the fast time constant of recovery, which was moderate at lower concentrations

Compound: Nc1nc2ccc(OC(F)(F)F)cc2s1 [riluzole]
- automated patch clamp (IonFlux Mercury ensemble recording); Port-a-Patch single-c (rNaV1.4 [2]): riluzole caused no change in either the contribution or the value of the slow time constant but caused a radical

Compound: CN(C)CCCN1c2ccccc2Sc2ccc(Cl)cc21 [chlorpromazine]
- automated patch clamp (IonFlux Mercury), 10 and 30 μM (rNaV1.4 [3]): inhibition by chlorpromazine was not much relieved throughout the whole 17-pulse sweep

Compound: CN(C)CCCN1c2ccccc2CCc2ccccc21 [imipramine]
- inhibition at 30 µM (rNaV1.4 [4]): 50 to 55%
